# Results taken from paper PMC5809530, “Resculpting the binding pocket of APC superfamily LeuT-fold amino acid transporters” (Cellular and Molecular Life Sciences: CMLS, 2017).
# What was measured:
# Assay type in all cases: cell-based
# SNAT5 (SLC38A5) [1] = molecular target: T1, SNAT5 (SLC38A5) (Homo sapiens, UniProt Q8WUX1, A138I); test: radiolabelled alanine uptake and competition with serine uptake in Xenopus oocytes; settings: 50 μM substrate, 0-10 mM competitor; pH 8.5, Na+
# T1 construct: full length in pSPORT1, expressed in Xenopus laevis oocytes
# T1 sequence (Q8WUX1 whole entry A138I): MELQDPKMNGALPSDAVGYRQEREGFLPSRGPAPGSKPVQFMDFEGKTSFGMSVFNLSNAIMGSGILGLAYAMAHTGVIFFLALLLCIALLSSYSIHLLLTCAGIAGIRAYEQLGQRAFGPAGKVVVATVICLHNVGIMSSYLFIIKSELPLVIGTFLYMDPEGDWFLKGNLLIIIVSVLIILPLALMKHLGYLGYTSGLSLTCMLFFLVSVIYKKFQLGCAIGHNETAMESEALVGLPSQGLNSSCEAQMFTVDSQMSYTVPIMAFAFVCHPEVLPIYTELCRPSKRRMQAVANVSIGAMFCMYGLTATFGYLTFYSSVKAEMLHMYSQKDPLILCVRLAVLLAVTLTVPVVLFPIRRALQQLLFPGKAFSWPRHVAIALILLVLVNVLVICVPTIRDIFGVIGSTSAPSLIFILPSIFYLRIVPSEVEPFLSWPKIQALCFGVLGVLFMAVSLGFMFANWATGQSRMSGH
# SNAT5 (SLC38A5) [2] = molecular target: T2, SNAT5 (SLC38A5) (Homo sapiens, UniProt Q8WUX1, A138T); test: as above; settings: 50 μM substrate, 0-10 mM competitor; pH 8.5, Na+
# T2 construct: full length in pSPORT1, expressed in Xenopus laevis oocytes
# T2 sequence (Q8WUX1 whole entry A138T): as the sequence (Q8WUX1 whole entry A138I) above, with I138T counted along it
# SNAT5 (SLC38A5) [3] = molecular target: T3, SNAT5 (SLC38A5) (Homo sapiens, UniProt Q8WUX1); test: competition with radiolabelled serine uptake in Xenopus oocytes; settings: 50 μM serine, 0-10 mM asparagine; pH 8.5, Na+
# T3 construct: full length in pSPORT1, expressed in Xenopus laevis oocytes
# T3 sequence (Q8WUX1 whole entry): as the sequence (Q8WUX1 whole entry A138I) above, with I138A counted along it
# PAT2 (SLC36A2) [4] = molecular target: PAT2 (SLC36A2) (Rattus norvegicus, UniProt Q8K415); test: competition with radiolabelled proline uptake in Xenopus oocytes; design: full length in pSPORT1, expressed in Xenopus laevis oocytes; settings: 10 μM proline, 10 mM glycine; Na+-free, pH 5.5
# PAT2 (SLC36A2) (Rattus norvegicus, UniProt Q8K415), sequence (Q8K415 whole entry): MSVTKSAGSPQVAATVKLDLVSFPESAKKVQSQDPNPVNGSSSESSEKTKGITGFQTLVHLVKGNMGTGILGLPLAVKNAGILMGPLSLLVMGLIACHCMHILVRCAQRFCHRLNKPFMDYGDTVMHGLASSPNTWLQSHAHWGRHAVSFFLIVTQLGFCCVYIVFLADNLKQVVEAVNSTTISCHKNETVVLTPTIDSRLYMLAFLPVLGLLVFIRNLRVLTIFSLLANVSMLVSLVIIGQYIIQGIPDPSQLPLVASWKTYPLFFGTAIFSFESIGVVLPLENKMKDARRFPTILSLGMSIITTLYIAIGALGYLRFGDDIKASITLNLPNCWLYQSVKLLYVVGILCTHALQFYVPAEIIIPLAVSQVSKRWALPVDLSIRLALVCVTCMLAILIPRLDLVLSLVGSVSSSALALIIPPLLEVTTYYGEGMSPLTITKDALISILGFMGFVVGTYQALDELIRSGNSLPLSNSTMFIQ
# SNAT5 (SLC38A5) [5] = molecular target: T3, SNAT5 (SLC38A5); test: radiolabelled serine uptake and self-competition in Xenopus oocytes; settings: 50 μM serine; pH 8.5, Na+
# PAT2 (SLC36A2) [6] = molecular target: T4, PAT2 (SLC36A2) (Rattus norvegicus, UniProt Q8K415, F159I); test: competition with radiolabelled proline uptake and direct uptake in Xenopus oocytes; settings: 10 μM proline, 0-20 mM α-ABA; Na+-free, pH 5.5
# T4 construct: full length in pSPORT1, expressed in Xenopus laevis oocytes
# T4 sequence (Q8K415 whole entry F159I): as the sequence (Q8K415 whole entry) above, with F159I counted along it
smiles,measurement,setting,value
C[C@H](N)C(=O)O [alanine],radiolabelled alanine uptake and competition with serine uptake in Xenopus oocyt,SNAT5 (SLC38A5) [1],A138T and A138I mutants gain function and become excellent alanine transporters
same,radiolabelled alanine uptake and competition with serine uptake in Xenopus oocyt,SNAT5 (SLC38A5) [2],A138T and A138I mutants gain function and become excellent alanine transporters
NC(=O)C[C@H](N)C(=O)O [asparagine],competition with radiolabelled serine uptake in Xenopus oocytes,SNAT5 (SLC38A5) [3],"measured in the presence of e unlabelled serine, f asparagine, or g alanine"
NCC(=O)O [glycine],competition with radiolabelled proline uptake in Xenopus oocytes,PAT2 (SLC36A2) [4],Glycine and alanine interact with all five carriers
N[C@@H](CO)C(=O)O [serine],radiolabelled serine uptake and self-competition in Xenopus oocytes,SNAT5 (SLC38A5) [5],"Serine is transported well by SNAT5, whereas alanine is transported poorly"
CC[C@H](N)C(=O)O [α-ABA],competition with radiolabelled proline uptake and direct uptake in Xenopus oocyt,PAT2 (SLC36A2) [6],PAT2-F159I not only binds Ser and α-ABA but efficiently translocates these amino acids
